Experiments:
Format in all cases: cell-based
IL-17A = assay: IL-17 release from differentiated primary human T-cells (IL-17A HTRF assay); conditions: primary human CD4+ T cells differentiated into Th17 cells, 45-hour incubation, IL-17A in supernatant; read-out: hIL17 IC50
Procedure: C. IL-17 Release from Differentiated Primary Human T-Cells and Cell Viability
Primary human cryopreserved CD4+ T Cells (Lonza) were thawed according to the manufacturer's recommendations and plated either in Lymphocyte Growth Medium-3 (LGM-3) or X-VIVO 20 media (Lonza) in 96-well tissue culture plates at a density of ˜2×10^5 cells per well, and allowed to recover for approximately 4 hours at 37° C. with 5% CO2 in a humidified atmosphere. After the recovery step, DMSO (vehicle) or test compound at doses ranging from 2 to 500 nM or 4 to 1000 nM in a three-fold dilution series was added to the cells. Three replicate wells were tested for each treatment condition. Final DMSO concentration in each well was 0.1%. Immediately after treatment, CD4+ T cells were activated by adding Dynabeads Human T-Activator CD3/CD28 (Life Technologies; bead-to-cell ratio of 1:2.5) and differentiated into Th17 cells by adding a mixture of the following cytokines: transforming growth factor-β (TGF-β, 5 ng/mL), IL-6 (20 ng/mL), IL-23 (20 ng/mL), and IL-1β (10 ng/mL). Undifferentiated control cells received only cytokine IL-2 (50 ng/mL). All human recombinant cytokines were purchased from R&D Systems. Following a 45-hour incubation at 37° C. with 5% CO2 in a humidified atmosphere, the plates were centrifuged for 3 minutes at 250×g, and half of the supernatant was transferred to anew plate to be used in the IL-17A assay (see below). Cell viability was assessed in the original plate using the CyQuant Direct Assay (Life Technologies). CyQuant reagent (an amount equal to 10% of remaining media volume) was added to the wells, and the plates were then incubated at 37° C. for 75 min. Fluorescence was read on a SpectraMax M2e spectrophotometer at 480 nm (excitation) and 535 nm (emission) wavelengths. CyQuant values from test compound samples were normalized to those from DMSO-treated samples. The concentration of IL-17A in the supernatant was measured using the Homogeneous Time-Resolved Fluorescence (HTRF) assay (Cisbio Bioassays) according to the manufacturer's protocol. The assay was performed at room temperature in low volume, solid white 384-well plates (Greiner Bio-One). Samples and standards (serially-diluted human recombinant IL-17A (0 to 5,000 pg/mL concentration range; Cisbio Bioassays) were incubated with the anti-human IL-17A antibody conjugates (the HTRF donor and acceptor pair) for 16 hours and fluorescence was measured using a Pherastar FS microplate reader (BMG Labtech) in the HTRF mode (excitation at 337 nm and emission at 665 nm and 620 nm). IL-17A levels were assessed in duplicate aliquots of supernatant from each well resulting in a total of six readings per test condition. The 665 nm/620 nm signal ratio was calculated and the concentration of IL-17A in each sample was determined by interpolation from the standard curve. The amount of IL-17A from test compound treated samples were normalized to that of the vehicle-treated samples, set to 100%. Data were analyzed using GraphPad Prism (GraphPad Software, La Jolla California USA). Concentrations of test compound were transformed by taking the logarithm of each concentration used. The IC50 values for compound-mediated reduction in IL-17A levels and cell viability were determined by non-linear regression analysis using the log(inhibitor) vs. normalized response with variable slope equation. Inhibition that is closely correlated with reduced viability is considered to be non-specific.

[1] = biological target: T1, Human RAR-related Orphan Receptor Gamma (RORγ) (Homo sapiens, UniProt P51449); assay: RORγ assay (GAL4-RORγ hybrid luciferase reporter, Indigo Biosciences); conditions: inverse-agonist activity, GAL4-RORγ reporter cells, 23 hours
T1 sequence (P51449 269-508 limits assumed): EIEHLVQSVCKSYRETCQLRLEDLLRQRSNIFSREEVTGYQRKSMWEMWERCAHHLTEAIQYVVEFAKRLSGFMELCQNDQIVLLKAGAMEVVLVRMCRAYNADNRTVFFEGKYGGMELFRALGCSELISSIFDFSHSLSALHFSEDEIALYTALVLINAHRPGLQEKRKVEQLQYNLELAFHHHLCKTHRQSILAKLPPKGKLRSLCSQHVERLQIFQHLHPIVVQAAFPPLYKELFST
Text: B. RORγ Assay and Cell Viability
The RORγ assay system was purchased from Indigo Biosciences. This nuclear receptor assay utilizes a human cell line that has been engineered to express a hybrid form of the Human RAR-related Orphan Receptor Gamma (RORγ) at high levels. The N-terminal DNA binding domain (DBD) of the native RORγ receptor was substituted with the yeast GAL4-DBD to generate the GAL4-RORγ hybrid nuclear receptor. The reporter cell line is transfected with a plasmid that encodes the beetle luciferase gene under the control of the GAL4 upstream activating sequence (UAS). GAL4 binds to the UAS and increases transcription of downstream target genes. The GAL4-RORγ hybrid is constitutively active; therefore, the principle application of this reporter assay system is to screen test compounds to quantify inverse-agonist activities against human RORγ. Because the ligand binding domain (LBD) of RORγ is identical to the LBD of RORγt, this assay is an accurate surrogate for evaluating activity of experimental ligands against RORγt. To assess the RORγ inverse-agonist activity of the test compounds, reporter cells were plated in white 96-well plates in triplicate and were treated with DMSO (vehicle) or test compound (concentration ranges of 7.8-2000 nM) at 37° C. with 5% CO2 in a humidified atmosphere for 23 hours. After this incubation, luciferin was added to the wells and luciferase activity was determined by measuring the luminescence signal using a BMG Pherastar microplate reader. Viability was determined using the Live Cell Multiplex Assay (Indigo Biosciences). Values from test compound samples were normalized to those from DMSO-treated samples. Data were analyzed using GraphPad Prism version 6.00 for Windows (GraphPad Software, La Jolla Calif. USA). A non-linear regression analysis with log (inhibitor) vs. normalized response using a variable slope was applied to fit the data and determine the IC50 values for inhibition of RORγ and cell viability. Inhibition that is closely correlated with reduced viability is considered to be non-specific.

[2] = test system: Nrf2 transcription factor; assay: AREc32 luciferase reporter assay; conditions: Homo sapiens; AREc32 cells, 19 hours; concentration required to increase GST ARE luciferase reporter activity by 2-fold; read-out: NRF2 ARE 2-Fold (EC2×)
Text: A. AREc32 Luciferase Reporter Assay
The AREc32 luciferase reporter assay allows for quantitative assessment of the endogenous activity of the Nrt2 transcription factor in cultured mammalian cells. AREc32 cells are derived from MCF-7 human breast carcinoma cells that were stably transfected with a reporter construct that contains the firefly luciferase gene located downstream of eight copies of the rat GSTA2 antioxidant response element (ARE) sequence (Wang et al., 2006; Concept Life Sciences Integrated Discovery and Development Services Ltd (CLSIDDS)). Active Nrf2 binds to the ARE sequences and increases expression of the firefly luciferase gene. To assess the Nrf2-activating potential of the test compounds, AREc32 cells were plated in black […] plates at a density of 20,000 cells per well in triplicate in DMEM+10% FBS+0.8 mg/mL Geneticin and incubated at 37° C. with 5% CO2 in a humidified atmosphere. The next day, cells were treated with DMSO (vehicle) or test compound (concentration ranges of 0.4-200 nM or 3.9-2000 nM) for 19 hours. Luciferase activity was determined using the ONE-Glo Luciferase assay (Promega). The luminescence signal was measured on a BMG Pherastar microplate reader. The mean luminescence value from test compound-treated wells was normalized to that from DMSO-treated wells and was represented as fold-induction. Data were analyzed using GraphPad Prism version 6.00 for Windows, GraphPad Software, La Jolla Calif. USA. A non-linear regression curve with log (agonist) vs. response using a variable slope was used to fit the data. Where applicable, a maximum threshold value of 50-fold over DMSO was set. EC2× values were interpolated from the curve. EC2× corresponds to the concentration of test compound required to increase GST ARE Luciferase reporter activity by 2-fold.

SMILES | IC50 (IL-17A) | IC50 [1] | EC (2-fold) [2]
C[C@H]1C(=O)C(C#N)=C[C@@]2(C)c3c(c(-c4ccncn4)nn3-c3ccc(-c4ccccc4)cn3)CC[C@H]12 [T59] | 99 nM | 113 nM | 0.449 µM
C[C@H]1C(=O)C(C#N)=C[C@@]2(C)c3c(c(-c4ccccc4F)nn3-c3ccc(N4CCOCC4)cc3)CC[C@H]12 [T85] | 46 nM | 50 nM | 0.079 µM
C[C@H]1C(=O)C(C#N)=C[C@@]2(C)c3nc(-c4ccnc(C5CC5)c4)n(-c4cccc(F)c4)c3CC[C@H]12 [T144] | 207 nM | 173 nM | 1.12 µM
Cc1cc(-c2ccc(-n3nc(-c4ccc(F)cc4)c4c3[C@]3(C)C=C(C#N)C(=O)[C@H](C)[C@H]3CC4)cc2)cnn1 [T177] | 9 nM | 52 nM | 0.271 µM
C[C@H]1C(=O)C(C#N)=C[C@@]2(C)c3c(c(-c4ccccc4)nn3C3CCS(=O)(=O)C3)CC[C@H]12 (some centres unmarked) [T29] |  | 470 nM | 0.837 µM
C[C@H]1C(=O)C(C#N)=C[C@@]2(C)c3c(c(-c4ccncn4)nn3-c3ccc(-c4cccnc4)cc3)CC[C@H]12 [T51] | 91 nM | 48 nM | 0.501 µM
C[C@H]1C(=O)C(C#N)=C[C@@]2(C)c3c(c(-c4ccccc4)nn3-c3ccc(-c4cccnc4)cc3)CC[C@H]12 [T37] | 24 nM | 32 nM | 0.167 µM
C[C@H]1C(=O)C(C#N)=C[C@@]2(C)c3c(c(-c4ccncn4)nn3-c3ccc(-c4cncc(F)c4)cc3)CC[C@H]12 [T49] | 52 nM | 59 nM | 0.392 µM
C[C@H]1C(=O)C(C#N)=C[C@@]2(C)c3c(c(-c4ccccc4)nn3-c3cccc(-c4cccnc4)c3)CC[C@H]12 [T34] | 87 nM | 87 nM | 0.245 µM
C[C@H]1C(=O)C(C#N)=C[C@@]2(C)c3c(c(-c4ccccc4)nn3-c3ccc(Cl)c(Cl)c3)CC[C@H]12 [T10] | 78 nM | 88 nM | 0.26 µM
C[C@H]1C(=O)C(C#N)=C[C@@]2(C)c3c(c(-c4cncnc4)nn3-c3ccc(-c4ccccc4)cc3)CC[C@H]12 [T70] | 58 nM | 75 nM | 0.472 µM
Cc1nc(-c2ccc(-n3nc(-c4cccnc4)c4c3[C@]3(C)C=C(C#N)C(=O)[C@H](C)[C@H]3CC4)cc2)no1 [T184] | 76 nM | 116 nM | 0.398 µM
C[C@H]1C(=O)C(C#N)=C[C@@]2(C)c3nn(-c4ccc(OC(F)(F)F)cc4)c(-c4ccccc4)c3CC[C@H]12 [T20] | 94 nM | 115 nM | 0.927 µM
C[C@H]1C(=O)C(C#N)=C[C@@]2(C)c3c(c(-c4cccnc4)nn3-c3ccc(-c4cncc(F)c4)cc3)CC[C@H]12 [T103] | 31 nM | 47 nM | 0.365 µM
CC(C)c1ccc(-c2nc3c(n2C(C)C)CC[C@@H]2[C@@H](C)C(=O)C(C#N)=C[C@@]32C)cc1 [T162] | 137 nM | 141 nM | 1.12 µM
C[C@H]1C(=O)C(C#N)=C[C@@]2(C)c3nc(-c4ccccc4)n(-c4nnn(C)n4)c3CC[C@H]12 [T111] |  | 768 nM | 0.59 µM
C[C@H]1C(=O)C(C#N)=C[C@@]2(C)c3c(c(-c4ccncn4)nn3-c3ccc(C4CC4)cn3)CC[C@H]12 [T62] |  | 284 nM | 0.691 µM
C[C@H]1C(=O)C(C#N)=C[C@@]2(C)c3nc(-c4ccncc4)n(-c4ccccc4)c3CC[C@H]12 [T112] |  | 264 nM | 0.563 µM
C[C@H]1C(=O)C(C#N)=C[C@@]2(C)c3nn(C4CCS(=O)(=O)C4)c(-c4ccccc4)c3CC[C@H]12 (some centres unmarked) [T30] |  | 143 nM | 0.462 µM
C[C@H]1C(=O)C(C#N)=C[C@@]2(C)c3c(c(-c4ccccc4)nn3-c3ccc(C(=O)O)cc3)CC[C@H]12 [T52] |  | > 2000 nM | > 2 µM
C[C@H]1C(=O)C(C#N)=C[C@@]2(C)c3c(c(-c4ccccc4)nn3-c3cccc(Br)c3)CC[C@H]12 [T33] |  | 89 nM | 0.29 µM
